Read-outs that look alike come from different tables or passages of the source.
What was measured:
[1] = not given; remark: listed apart in the source
physchem = conditions: aqueous with cosolvent or surfactant or cyclodextrin
[2] = Solubility of drug-linkers in 20% MeCN/H2O; conditions: aqueous with cosolvent or surfactant or cyclodextrin
[3] = In vitro stability, human whole blood incubation
Experimental: Human blood was collected the morning of the experiment from at least 3 individuals using K2EDTA as the anticoagulant. An equal volume from each individual was combined for use in the experiment. The experiment started no more than 2 hours after the blood collection. All drug-linker conjugates were solubilized in DMSO to form each 10 mM stock solution. Dosing solution for each linker was prepared by serial dilution of each stock solution using 1:3 acetonitrile:water. All solutions were kept on ice during the experiment.
Human blood was pre-warmed in a 37° C. water bath in an appropriate volume to collect samples over a time course from 0 through 6 hours. Incubating blood was mixed well just prior to sampling to give a homogenous mixture. Aliquots of blood were removed at appropriate time points, added to cold stopping solution, which was methanol containing an appropriate internal standard, and mixed rigorously. The samples were centrifuged at 4000 RPM for 10 minutes after which equal volumes of the supernatant fractions were diluted with cold deionized water. The samples were then ready for analysis.
(§1) A Thermo LX-2 ultra-performance liquid chromatography system coupled with a Sciex API5000 triple quadrupole mass spectrometer was used for the analysis. The payload and drug-linkers were retained and separated by a C18 column and detected by the mass spectrometer. […] Samples were kept in cold stack set at 5° C.

[4] = In vitro stability, rat liver lysosome incubation
Experimental: All linker compounds were solubilized in DMSO to form each 10 mM stock solution. Dosing solution for each linker was prepared by serial dilution of each stock solution using 1:3 acetonitrile:water. All solutions were kept on ice during the experiment.
Rat lysosomes were pre-warmed in a 37° C. water bath in an appropriate volume to collect samples over a time course from 0 minutes through 6 hours. Incubating lysosomes were mixed well just prior to sampling to give a homogenous mixture. Aliquots of lysosomes were removed at appropriate time points, added to cold stopping solution, which was methanol containing an appropriate internal standard, and mixed rigorously. The samples were centrifuged at 4000 RPM for 10 minutes after which equal volumes of supernatant were diluted with cold deionized water. The samples were ready for analysis.
as §1

[5] = Matrix spiking (time 0 sample, lysosomes pretreated with stopping reagent)

Compound: C[C@@H]1C[C@H]2[C@@H]3CCC4=CC(=O)C=C[C@]4(C)[C@@]3(F)[C@@H](O)C[C@]2(C)[C@@]1(O)C(=O)COP(=O)(O)OCCNC(=O)COC1C#CCCCCC1 (stereo partly drawn) [Compound 4-3, 2-(2-(cyclooct-2-yn-1-yloxy)acetamido)ethyl (2-((8S,9R,10S,11S,13S,14S,16R,17R)-9-fluoro-11,17-dihydroxy-10,13,16-trimethyl-3-oxo-6,7,8,9,10,11,12,13,14,15,16,17-dodecahydro-3H-cyclopenta[a]phenanthren-17-yl)-2-oxoethyl) hydrogen phosphate]
- Calculated Conc. for each compound in human whole blood (0 min): 1539 nM
- Calculated Conc. for dexamethasone in human whole blood (20 min): 0 nM
- Calculated Conc. for each compound in human whole blood (20 min): 1861 nM
- Calculated Conc. for dexamethasone in human whole blood (1 h): 0 nM
- Calculated Conc. for each compound in human whole blood (1 h): 1619 nM
- Calculated Conc. for dexamethasone in human whole blood (3 h): 1 nM
- Calculated Conc. for each compound in human whole blood (3 h): 1677 nM
- Calculated Conc. for dexamethasone in human whole blood (6 h): 3 nM
- Calculated Conc. for each compound in human whole blood (6 h): 2040 nM
- Calculated Conc. for dexamethasone in rat lysosomal lysate ([1]; 0 min): 0.9 nM
- Calculated Conc. for each compound in rat lysosomal lysate ([1]; 0 min): 888.8 nM
- Calculated Conc. for dexamethasone in rat lysosomal lysate ([1]; 5 min): 14.5 nM
- Calculated Conc. for each compound in rat lysosomal lysate ([1]; 5 min): 1156.1 nM
- Calculated Conc. for dexamethasone in rat lysosomal lysate ([1]; 10 min): 14.2 nM
- Calculated Conc. for each compound in rat lysosomal lysate ([1]; 10 min): 983.4 nM
- Calculated Conc. for dexamethasone in rat lysosomal lysate ([1]; 15 min): 22.3 nM
- Calculated Conc. for each compound in rat lysosomal lysate ([1]; 15 min): 1032.6 nM
- Calculated Conc. for dexamethasone in rat lysosomal lysate ([1]; 30 min): 28.9 nM
- Calculated Conc. for each compound in rat lysosomal lysate ([1]; 30 min): 980.1 nM
- Calculated Conc. for dexamethasone in rat lysosomal lysate ([1]; 1 h): 41.6 nM
- Calculated Conc. for each compound in rat lysosomal lysate ([1]; 1 h): 882.4 nM
- Calculated Conc. for dexamethasone in rat lysosomal lysate ([1]; 2 h): 72.5 nM
- Calculated Conc. for each compound in rat lysosomal lysate ([1]; 2 h): 880.1 nM
- Calculated Conc. for dexamethasone in rat lysosomal lysate ([1]; 3 h): 90.2 nM
- Calculated Conc. for each compound in rat lysosomal lysate ([1]; 3 h): 903.8 nM
- Calculated Conc. for dexamethasone in rat lysosomal lysate ([1]; 6 h): 141.9 nM
- Calculated Conc. for each compound in rat lysosomal lysate ([1]; 6 h): 858.9 nM
- solubility (physchem): > 10000 µg/mL

Compound: C[C@@H]1C[C@H]2[C@@H]3CCC4=CC(=O)C=C[C@]4(C)[C@@]3(F)[C@@H](O)C[C@]2(C)[C@@]1(O)C(=O)COP(=O)(O)OP(=O)(O)Oc1ccc(NC(=O)COC2C#CCCCCC2)cc1 (stereo partly shown) [Compound 3-4]
- solubility [2]: > 10000 µg/mL
- Calculated Conc. for each compound in human whole blood ([3]; 37° C., 0 m): 1382 nM
- Calculated Conc. for each compound in human whole blood ([3]; 37° C., 5 m): 1325 nM
- Calculated Conc. for each compound in human whole blood ([3]; 37° C., 15 m): 1398 nM
- Calculated Conc. for each compound in human whole blood ([3]; 37° C., 30 m): 1250 nM
- Calculated Conc. for each compound in human whole blood ([3]; 37° C., 1 hr): 1141 nM
- Calculated Conc. for each compound in human whole blood ([3]; 37° C., 2 hr): 1703 nM
- Calculated Conc. for each compound in rat lysosomal lysate ([4]; 37° C., 0 m): 1252 nM
- Calculated Conc. for each compound in rat lysosomal lysate ([4]; 37° C., 5 m): 501.28 nM
- Calculated Conc. for each compound in rat lysosomal lysate ([4]; 37° C., 10 m): 149.18 nM
- Calculated Conc. for each compound in rat lysosomal lysate [4, 5]: 3128.83 nM
- detectability of drug-linker in rat lysosomal extract (in words) ([4]; after 10 minutes incubation): no longer detectable

Compound: C[C@@H]1C[C@H]2[C@@H]3CCC4=CC(=O)C=C[C@]4(C)[C@@]3(F)[C@@H](O)C[C@]2(C)[C@@]1(O)C(=O)COP(=O)(O)Oc1ccc(NC(=O)COC2C#CCCCCC2)cc1 (stereo partly drawn) [Compound 5-3, 4-(2-(cyclooct-2-yn-1-yloxy)acetamido)phenyl (2-((8S,9R,10S,11S,13S,14S,16R,17R)-9-fluoro-11,17-dihydroxy-10,13,16-trimethyl-3-oxo-6,7,8,9,10,11,12,13,14,15,16,17-dodecahydro-3H-cyclopenta[a]phenanthren-17-yl)-2-oxoethyl) hydrogen phosphate]
- solubility [2]: > 10000 µg/mL
- Calculated Conc. for each compound in human whole blood ([3]; 37° C., 0 m): 1299 nM
- Calculated Conc. for each compound in human whole blood ([3]; 37° C., 5 m): 1251 nM
- Calculated Conc. for each compound in human whole blood ([3]; 37° C., 15 m): 1276 nM
- Calculated Conc. for each compound in human whole blood ([3]; 37° C., 30 m): 1111 nM
- Calculated Conc. for each compound in human whole blood ([3]; 37° C., 1 hr): 937 nM
- Calculated Conc. for each compound in human whole blood ([3]; 37° C., 2 hr): 1480 nM
- Calculated Conc. for each compound in rat lysosomal lysate ([4]; 37° C., 0 m): 1394.08 nM
- Calculated Conc. for each compound in rat lysosomal lysate ([4]; 37° C., 5 m): 1295.86 nM
- Calculated Conc. for each compound in rat lysosomal lysate ([4]; 37° C., 10 m): 1278.4 nM
- Calculated Conc. for each compound in rat lysosomal lysate ([4]; 37° C., 15 m): 1407.73 nM
- Calculated Conc. for each compound in rat lysosomal lysate ([4]; 37° C., 30 m): 1175.39 nM
- Calculated Conc. for each compound in rat lysosomal lysate ([4]; 37° C., 1 hr): 970.65 nM
- Calculated Conc. for each compound in rat lysosomal lysate ([4]; 37° C., 2 hr): 743.45 nM
- Calculated Conc. for each compound in rat lysosomal lysate ([4]; 37° C., 3 hr): 500.41 nM
- Calculated Conc. for each compound in rat lysosomal lysate ([4]; 37° C., 6 hr): 221.03 nM
- Calculated Conc. for each compound in rat lysosomal lysate [4, 5]: 2555.29 nM

Compound: C[C@@H]1C[C@H]2[C@@H]3CCC4=CC(=O)C=C[C@]4(C)[C@@]3(F)[C@@H](O)C[C@]2(C)[C@@]1(O)C(=O)CO [Dexamethasone, dexamethasone, reference compound]
- Calculated Conc. for each compound in human whole blood ([3]; 37° C., 0 m): 1687 nM
- Calculated Conc. for each compound in human whole blood ([3]; 37° C., 20 m): 2409 nM
- Calculated Conc. for each compound in human whole blood ([3]; 37° C., 1 hr): 2224 nM
- Calculated Conc. for each compound in human whole blood ([3]; 37° C., 3 hr): 1502 nM
- Calculated Conc. for each compound in human whole blood ([3]; 37° C., 6 hr): 2792 nM
- Calculated Conc. for each compound in human whole blood ([3]; Matrix spiking (time 0 sample, blood pretreated with stopping reagent)): 2939 nM
- Calculated Conc. for each compound in rat lysosomal lysate ([4]; 37° C., 0 m): 1456.4 nM
- Calculated Conc. for each compound in rat lysosomal lysate ([4]; 37° C., 5 m): 1851.2 nM
- Calculated Conc. for each compound in rat lysosomal lysate ([4]; 37° C., 10 m): 1640.8 nM
- Calculated Conc. for each compound in rat lysosomal lysate ([4]; 37° C., 15 m): 1666.7 nM
- Calculated Conc. for each compound in rat lysosomal lysate ([4]; 37° C., 30 m): 1602.6 nM
- Calculated Conc. for each compound in rat lysosomal lysate ([4]; 37° C., 1 hr): 1576.8 nM
- Calculated Conc. for each compound in rat lysosomal lysate ([4]; 37° C., 2 hr): 1681.0 nM
- Calculated Conc. for each compound in rat lysosomal lysate ([4]; 37° C., 3 hr): 1689.7 nM
- Calculated Conc. for each compound in rat lysosomal lysate ([4]; 37° C., 6 hr): 1689.8 nM
- Calculated Conc. for each compound in rat lysosomal lysate [4, 5]: 2059.0 nM

From patent US10550190B2 (Merck Sharp & Dohme Corp., priority 2014, dated 2020)
